Patent US12433892B2, “Compositions and methods of treatment for neurological disorders comprising depression” (Gliapharm SA, priority 2018, dated 2025)
Where a name gives a salt, the structure may show the parent alone.

Key:
astrocytes [1] = experiment: Intracellular glycogen quantification; type: cell-based, mouse; conditions: Prestwick hits; 10 uM, 3 h
Procedure: For glycogen dosage, a protein dosage was first performed in order to assess whether harvested astrocytes from primary cell cultures yielded enough and equivalent amounts of proteins comparing each replicate, and to ensure that the obtained differences in glycogen quantities were due to drug action and not to inner protein quantities.
Astrocytes used for these dosages were previously grown in 6-well plates for 17 days and stimulated with Vehicle (DMSO) or drug of interest (1 μM to 100 μM) for 180 min, at 37° C. 5% CO2/95% air in D5030 complete medium. Medium was removed and replaced with 600 μl of 30 mM Tris HCl, and stored at −20° C.
Proteins were dosed using the micro BCA Protein Assay kit (Thermo Scientific), as described in the manufacturer's instructions. Briefly, thawed cells were sonicated and 5 μl aliquots were placed in a transparent 96-well plate, to which we added 25 μl 30 mM Tris HCl, 70 μl H2O and 100 μl of a BCA mix (made as described in manufacturer's guidelines). After a 120 min-incubation at 37° C., absorbance was measured with Safire 2 spectrophotometer at a wavelength of 562 nm, and protein quantities were determined from a standard curve of Bovine Serum Albumin (BSA).
Glycogen was quantified using a 250 μl-aliquot of the same stimulated, thawed, and sonicated cells. After an incubation period of 30 min at 90° C. and 400 rpm, 28 μl of an acetic acid/sodium acetate (both from Sigma) 0.1M pH 4.6 buffer was added to each aliquot, which was then separated in two. Each split aliquot received whether 5 μl of amyloglucosidase (Roche) or 5 μl H2O, and all cell solutions were incubated for 120 min in a shaking 37° C.-waterbath. After a centrifugation at 16'000 G for 5 min, 20 μl of supernatant were placed 96-well plate, to which 150 μl of a mix containing 0.67 mM ATP (Roche), 0.67 mM NADP (Roche), 1.8% hexokinase/glucose-6-phosphate dehydrogenase (Roche) and 0.1M Tris Buffer-HCl/3.3 mM magnesium (Fluka)/pH 8.1 buffer was added. Fluorescence was measured with Safire 2 spectrophotometer (340 nm excitation/440 nm emission). Glycogen concentration was obtained by subtracting glucose value of samples with amyloglucosidase to samples without amyloglucosidase, and were expressed relative to the amount of proteins previously determined.
Levels of intracellular glycogen in astrocytes were measured at 3 h after stimulation with 20 hits from the Prestwick library (10 μM each), as shown in FIG. 2. n=6-10; Ctrl pos. is glutamate (0.5 mM). Statistical analysis consisted in ANOVA followed by Fisher LSD post-hoc test for pair-wise comparisons.
Statistical analysis consisted in ANOVA followed by Fisher LSD post-hoc test for pair-wise comparisons.

C57Bl/6 female mice = conditions: 100 mg/kg single per os, 14 days monitoring
Procedure: The compound was administered at 10 mg/kg.
In vivo acute toxicity was assessed with a starting maximal concentration of 100 mg/kg. […] Groups of 6-8 female mice were monitored for 14 days after single oral administration of the drug, weighted every day, and a macroscopic histological examination was performed at the end of the experiment. Clinical evaluation included the observation of mice' ability to feed, hydrate, notification of any visible pain, unusual grooming or respiration, blood loss, evidence of microbial infection, and/or significant loss of weight.
For this period, mice were weighted and clinically monitored (feeding, hydration, pain, grooming, respiration, blood loss, microbial infection). At the end of the 14-day evaluation, mice were sacrificed and high level organ analysis was performed. Drugs were always administered per os (gavage) in solution composed of Methocel 4KM 0.4%, Tween 0.25%.

cerebral glycogen = experiment: In vivo pharmacodynamics: glycogen levels in prefrontal cortex; set-up: species or system mouse; conditions: 10 mg/kg
Source text: To measure intracerebral levels of glycogen, mice were euthanized at different time points after drug administration, using a microwave beam (1 sec, 6 kW) focused directly on mice brains. This method of fixation results in the rapid inhibition of enzymatic reactions, thereby preserving intact metabolic state in the brain of euthanized animals. Glycogen concentration was quantified using standard biochemical procedure. Groups of 8 male mice were used for each condition.
Glycogen levels were measured in microwave-fixed PFC (prefrontal cortex, 6 kW, 1 sec), which ensures enzymatic inhibition and stops glycogen degradation. Samples were then flash frozen before dosage.
First, glycogen levels were analyzed at 1 h, 3 h and 6 h after drug administration. […] This time point was subsequently used for dose-response experiments. Glycogen levels were quantified at 3H after administration with GP-01 to GP-07 at 1, 10 or 100 mg/kg.

astrocytes [2] = experiment: Intracellular glycogen quantification; type: cell-based, mouse; conditions: CDC54K hits; 10 uM, 3 h
primary astrocytes = experiment: Intracellular glycogen quantification, Example 2; type: cell-based, mouse; conditions: 10 μM, 3 h (GP-0157: 0.1, 1, 10 μM)
Procedure: To assess for the effect of the compounds of the invention, those were tested in primary astrocytes, as described below. Secretion of lactate was measured directly in the extracellular medium, and indirectly through the acidification of extracellular medium using extracellular pH sensor SNARE-5F-(AND-6)-CAR (SNARF5). Glucose uptake was measured by quantification 2-deoxyglucose in the cell. Cell Cultures Primary cultures of cerebrocortical astrocytes were obtained from 1 to 2-day-old OF1 mouse pups (Charles River). Briefly, cortices were isolated and minced in small pieces under a dissecting microscope. The cells were incubated for 30 min at 37° C. in a solution containing 20 U/ml papain, 1 mM L-cysteine and 10 kU/ml DNase I. After dissociation, papain activity was stopped by the addition of fetal calf serum (FCS). Single-cell suspension was then obtained by mechanical dissociation, which consisted in cells trituration in a DMEM D7777 medium supplemented with 44 mm NaHCO3, 10 ml/L antibiotic/antimycotic solution and 10% FCS. The cells were seeded at an average density of ˜10'000 cells/cm2 on poly-D-lysine coated 96- or 12-well culture plates, depending on their use, and grown in DMEM D7777 medium supplemented with 44 mm NaHCO3, 10 ml/L antibiotic/antimycotic solution and 10% FCS at 37° C. in a humidified atmosphere containing 5% CO2/95% air. Culture medium was renewed twice a week. Cells were stimulated and harvested between DIV14 and DIV17, when confluence and cell growth were optimal. Extracellular Medium Acidification (SNARF5) Secretion of lactate was measured indirectly through the acidification of extracellular medium using extracellular pH sensor […] (SNARF5). After washing cells twice with stimulation medium (DMEM (D5030, Sigma), 1 mM NaHCO2, and 5 mM Glucose, pH 7.4) at 37° C., cells were stimulated with compounds at a final concentration ranging from 10 nM to 30 μM in 50 μl per well of stimulation medium supplemented with 10 μM of SNARF5 (Life Technologies Corporation). Each compound was tested in two different plates for duplicates. After 90 min stimulation, fluorescence was read at exc. (excitation) 480 nm/emm. (emission) 580 nm and at exc 480 nm/emm. 630 nm. The ratio of fluorescence between 630 nm and 580 emission values, which is proportional to extracellular pH, was calculated. In each plate, 8 wells were used for negative controls (DMSO 0.1%) and 8 wells were used for positive controls (CCCP 2 μM in DMSO). The extracellular medium acidification in primary mouse astrocytes treated with GP-A1 was quantified (FIG. 13). Extracellular medium acidification was measured over a period of 1.5 h and 3 h. […] Extracellular Lactate Quantification Secretion of L-lactate was measured in the extracellular medium of 96-well plated astrocytes after 90 min stimulation (at 37° C., in 5% CO2/95% air conditions) with Vehicle (DMSO), the compounds of the invention (100 nM to 100 μM) or positive control. […] Stimulation medium was composed of D5030 medium complemented with 5 mM D-glucose and 44 mM sodium bicarbonate, pH 7.2. To quantify lactate concentrations in the extracellular medium, 200 μl of a 0.2M Glycine-semicarbazide buffer (pH 10) containing 3 mM NAD and 14 U/ml LDH was added to each well of a 96-well plate containing 30 μl aliquots of extracellular medium. Samples were incubated at 37° C. for 1 h. Fluorescence intensity (340 nm excitation/450 nm emission), which represents the amount of NADH produced, was measured, and lactate concentration values were determined relative to a standard curve of L-lactate concentrations. The release of lactate from primary mouse astrocytes treated with GP-A1 was quantified (FIG. 5A and FIG. 14). Accumulation of lactate in the extracellular medium was measured over a period of 1.5 h. […] Intracellular Glycogen Quantification Astrocytes grown on 12-well plates were used for intracellular glycogen quantifications. […]

[3] = tested on: C57Bl/6 male and female mice; experiment: In vivo chronic toxicity (28 days); conditions: chronic administration 10 mg/kg; treatment interrupted
Procedure: During this period, clinical symptoms and weight were recorded.
Chronic toxicity was assessed.

[4] = tested on: C57Bl/6 male and female mice; experiment: Anxiety in elevated plus maze (EPM) after chronic treatment; type: in vivo, mouse; conditions: end of 28-day chronic treatment, 10 mg/kg
Procedure: Total distance, frequency of entry and duration in the open arms were measured using Ethovision automatic scoring; n>10;

[5] = tested on: cerebral extracellular lactate; experiment: In vivo pharmacodynamics: lactate biosensors in cortex; set-up: species or system mouse; conditions: 10 mg/kg per os
Procedure: Extracellular levels of lactate were monitored in vivo using lactate biosensors (Pinnacle Technology), according to the manufacturer's instructions. Cannulae were surgically implanted in mice cerebral cerebral motor cortex areas M1/M2 (coordinates: +1.94 mm (to bregma), lateral −1.4 mm (to mideline), ventral −1.0 mm (to dura)) 5-7 days before administration of the compounds. Drugs were administered per os as previously described, and cerebral levels of extracellular lactate were dynamically recorded for 6 hours. Mice were administered vehicle alone first, followed 3 hours later by vehicle or drug (10 or 100 mg/kg). Area Under the Curve (AUC) quantifying the fluctuations of extracellular lactate concentrations for each of the compound tested was calculated using Graphad Prism and the ratio of AUC after drug over Vehicle administration was calculated. Groups of 8 male mice were used for each condition.
To measure biological effect of lead molecules in vivo in the brain, lactate levels were quantified after administration of the drug by using lactate biosensors implanted in the cortex of freely moving mice.

| SMILES | Glycogen (statistical significance of glycogen degradation) (astrocytes [1]) | Glycogen (statistical significance of glycogen degradation) (astrocytes [2]) | mobilization of intracellular glycogen (primary astrocytes) | other results |
| --- | --- | --- | --- | --- |
| [H]/N=C(\N/C(=N/[H])Nc1ccc(Cl)cc1)NC(C)C [Proguanil hydrochloride] | *** (***p<0.001) | – | – | acute toxicity (toxic or not) (C57Bl/6 female mice): toxic; PD effect (cerebral glycogen): did not show good PD effect |
| COc1ccc(Nc2nc(N3CCOCC3)c3ccccc3n2)cc1.Cl [T0508-5190] | – | ** (**p<0.01) | significantly enhance the mobilization of intracellular glycogen | – |
| O=S(=O)(Nc1cc(F)cc(F)c1)c1ccc2ccccc2c1 [T5884038] | – | **** (****p<0.0001) | significantly enhance the mobilization of intracellular glycogen | – |
| C#C[C@]1(O)CC[C@H]2[C@@H]3[C@H](C)CC4=C(CCC(=O)C4)[C@H]3CC[C@@]21C [Tibolone] | *** (***p<0.001) | – | – | weight loss [3]: > 20%; anxiety in EPM [4]: increased anxiety; cerebral lactate (AUC ratio vs vehicle) [5]: Significant increase |
